Test: Test Example 1: impact of tension on hair straightening
Conditions: then shampooed
Description: Three samples A-C of frizzy hair (bundles of 2 g Indian frizz hair, untreated, obtained from IHIP, International Hair Importers & Products, NY; see FIG. 1A) were shampooed, rinsed off with water and dried at ambient temperature. Then, an aqueous solution of 10 wt. % glyoxylic acid (pH 1.5, adjusted with NaOH) was applied to the samples A-C at a ratio of hair to solution of 1:1, uniformly distributed with a comb and left on the hair for 15 minutes at 40° C. Then, the samples were dried with a hair drier at a temperature of 90-100° C. for 10 minutes. The temperature was measured by holding an infrared thermometer at a distance of about 20 to 40 cm from the hair and scanning the area where the air stream comes into contact with the hair. The average of at least ten readings is then taken as the temperature. Samples A and B (Reference) were dried in the absence of mechanical tension and serve as reference samples. To sample C, mechanical tension was applied by fixing one end and holding the sample in an elongated state using a round brush. Reference sample B was subsequently treated with a straightening iron at a temperature of 230° C. The samples A-C were rinsed off with water, shampooed, combed and dried at ambient temperature.

## O=CC(=O)O [glyoxylic acid]
Sample A (reference): 10 wt. % aqueous solution pH 1.5, dried with hair drier 90-100° C. in relaxed state, no mechanical tension
  straightening of hair after treatment: does not lead to a substantial straightening
Sample B (reference): 10 wt. % aqueous solution pH 1.5, dried without tension, then straightening iron at 230° C.
  straightening of hair after treatment: straightening of the hair
Sample C: 10 wt. % aqueous solution pH 1.5, 15 min at 40° C., dried with hair drier 90-100° C. for 10 min under mechanical tension (round brush), no iron, versus sample A
  appearance of hair after treatment (straightening, frizz): remarkable straightened appearance and reduced frizz
